Measured values from ChEMBL document CHEMBL1122041, “Molecular structures of 2,4-diaminopyrimidine antifolates with antineoplastic activity” (J Med Chem, 1982).

Columns and labels:
Dihydrofolate reductase [1] = target: T1, Dihydrofolate reductase (Homo sapiens, UniProt P00374); assay: Competitive inhibition of mammalian dihydrofolate reductase
T1 sequence (P00374 whole entry): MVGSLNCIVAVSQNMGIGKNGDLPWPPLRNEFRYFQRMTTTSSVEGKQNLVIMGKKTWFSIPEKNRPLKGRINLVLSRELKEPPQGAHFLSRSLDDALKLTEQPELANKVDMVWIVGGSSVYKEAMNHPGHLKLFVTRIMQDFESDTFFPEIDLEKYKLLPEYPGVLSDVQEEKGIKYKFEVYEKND

TA3 [2] = assay: Evaluated for the concentration needed for 50% growth inhibition of mouse mammary adenocarcinoma cells (TA3) in culture.; assay type: functional; conditions: TA3, read-out: ID50
TA3 [3] = assay: Evaluated for the concentration needed for 50% growth inhibition of mouse mammary adenocarcinoma cells (TA3) in culture; assay type: functional; conditions: TA3, read-out: ID50
Dihydrofolate reductase [4] = target: T1, Dihydrofolate reductase; assay: Noncompetitive inhibition of mammalian Dihydrofolate reductase

Structure (SMILES) | IC50 (TA3 [2]) | IC50 (TA3 [3]) | other results
Cc1nc(N)nc(N)c1NC(=O)C12CC3CC(CC(C3)C1)C2 | – | – | Ki (Dihydrofolate reductase [1]): 9 nM
Cc1nc(N)nc(N)c1C12CC3CC(CC(C3)C1)C2 | 6 nM | – | –
CCc1nc(N)nc(N)c1C12CC3CC(CC(C3)C1)C2 | 0.25 nM | – | –
Cc1nc(N)nc(N)c1-c1ccc2ccccc2c1 | – | 70 nM | –
Cc1nc(N)nc(N)c1-c1cccc2ccccc12 | – | – | Ki (Dihydrofolate reductase [4]): 56000 nM
CN(Cc1cnc2nc(N)nc(N)c2n1)c1ccc(C(=O)N[C@@H](CCC(=O)O)C(=O)O)cc1 [METHOTREXATE] | – | 8 nM | –
